The experiment relates to Cardiac Arrhythmia in Dogs. Briefly: Ouabain induced arrhythmias: correction of existing ventricular arrhythmia by i.v. infusion. In kind it is in vivo, adult mongrel dogs. The conditions noted are these: Canis lupus familiaris, iv, 0.5 h; Ouabain-Induced arrhythmia model; dogs under barbiturate anaesthesia; infusion into a femoral vein at 1 mg/kg/min; active if reversion to sinus rhythm maintained for at least 30 minutes; tested as difumarate hemihydrate salt, dose computed as free base; read-out: Correcting Dose mg/kg, i.v. (computed as free base). As for the experimental part:
Correction of existing cardiac arrhythmias of ventricular origin is carried out on (1) adult mongrel dogs which are under barbiturate anaesthesia during the test. A Grass Model 7 Polygraph was used for recording femoral arterial blood pressure (Statham P23AC Transducer) and the electro- cardiagram (Grass 7P4 Preamplifier). Ouabain was given intravenously in an initial dose of 40 µg/kg and in a second dose of 20 µg/kg 30 minutes after the first dose and in subsequent doses of 10 µg/kg which were repeated at 15 min. intervals as required for producing cardiac arrhythmias that persisted for at least 15 minutes. When the arrhythmias were established, the test compounds were administered by infusion (Harvard Model 942 Infusion Pump) into a femoral vein at a rate of 1 mg/kg/min. Concentration of compound was adjusted according to the weight of the dog to allow a volume infusion of 1 ml/min. The compound was considered to be active as antiarrhythmic agent if reversion to sinus rhythm occurred which was maintained for at least 30 minutes.
Data obtained for one preferred compound, namely 1-[2-(dimethylamino)ethyl]α,α-diphenyl-3-pyrrolidine- acetamide as represented by its defumarate hemihydrate salt are shown in Table 1.

Consider `CN(C)CCN1CCC(C(C(N)=O)(c2ccccc2)c2ccccc2)C1` (stereo not drawn) [Example 5, 1-2-(Dimethylamino)ethyl]-α,α-diphenyl-3-pyrrolidine-acetamide difumarate, hemihydrate], for which the minimal effective dose is 5 mg/kg.

The values above are taken from EP0178946A2, “1-(Aminoalkyl)-alpha, alpha-diaryl pyrrolidine-piperidine- and homopiperidine- acetamides and acetonitriles” (A.H. ROBINS COMPANY, INCORPORATED, priority 1984, dated 1986).
